Structures can show the parent of a compound that is named as a salt. Where two headings read alike, the source gives them in different places.
What was measured:
Format in all cases: biochemical
[1] = target: T1, human JAK2 (a.a. 828-1132) (Homo sapiens, UniProt O60674); assay: In vitro JAK kinase assay (HTRF, phosphorylation of a biotinylated peptide), JAK2
T1 construct: JAK2 (a.a. 828-1132); His tag (N); made in house; host or cells: insect cells (baculovirus)
Method in brief: (§1)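 Kinase reactions ran at room temperature for 1 h with ATP matched per isoform (JAK1 90 μM, JAK2 30 μM, JAK3 3 μM). After an EDTA stop, the phosphorylated biotin-peptide was read by HTRF using Eu-Py20 and SA-APC after 40 min binding.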

[2] = target: T2, human JAK3 (a.a. 781-1124) (Homo sapiens, UniProt P52333); assay: In vitro JAK kinase assay (HTRF, phosphorylation of a biotinylated peptide), JAK3
T2 construct: JAK3 (a.a. 781-1124); His tag (N); made in house; host or cells: insect cells (baculovirus)
Method in brief: as §1

[3] = target: TYK2 (Homo sapiens, UniProt P29597); assay: TYK2 kinase inhibition (Table A1)
[4] = target: T3, human JAK1 (a.a. 837-1142) (Homo sapiens, UniProt P23458); assay: In vitro JAK kinase assay (HTRF, phosphorylation of a biotinylated peptide), JAK1; settings: read-out: JAK1 IC50
T3 construct: human JAK1 (a.a. 837-1142); His tag (N); made in house; host or cells: insect cells (baculovirus)
Method in brief: as §1

[5] = target: T4, Recombinant Human Anaplastic Lymphoma Kinase (Homo sapiens, UniProt Q9UM73); assay: ALK HTRF kinase assay; settings: for IC50: Table B1, cells without percent sign
T4 construct: purchased Invitrogen, Carlsbad, Calif
Method in brief: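 Readout was HTRF between a Eu-W1024 anti-phosphotyrosine antibody and streptavidin-APC bound to biotinylated peptide phosphorylated by recombinant human ALK. IC50 values came from a four-parameter logistic fit.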

[6] = method AA1 (30 μM ATP) or AA2 (1000 μM ATP), not stated per value
[7] = method AA1 (3 μM ATP) or AA2 (1000 μM ATP), not stated per value
[8] = method AA1 (90 μM ATP) or AA2 (1000 μM ATP), not stated per value
[9] = compound at 500 nM or 1 mM, 90 μM ATP
[10] = compound at a concentration of 500 nM or 1 mM (not specified), cells shown as percentage

T4 sequence (Q9UM73 19-1620): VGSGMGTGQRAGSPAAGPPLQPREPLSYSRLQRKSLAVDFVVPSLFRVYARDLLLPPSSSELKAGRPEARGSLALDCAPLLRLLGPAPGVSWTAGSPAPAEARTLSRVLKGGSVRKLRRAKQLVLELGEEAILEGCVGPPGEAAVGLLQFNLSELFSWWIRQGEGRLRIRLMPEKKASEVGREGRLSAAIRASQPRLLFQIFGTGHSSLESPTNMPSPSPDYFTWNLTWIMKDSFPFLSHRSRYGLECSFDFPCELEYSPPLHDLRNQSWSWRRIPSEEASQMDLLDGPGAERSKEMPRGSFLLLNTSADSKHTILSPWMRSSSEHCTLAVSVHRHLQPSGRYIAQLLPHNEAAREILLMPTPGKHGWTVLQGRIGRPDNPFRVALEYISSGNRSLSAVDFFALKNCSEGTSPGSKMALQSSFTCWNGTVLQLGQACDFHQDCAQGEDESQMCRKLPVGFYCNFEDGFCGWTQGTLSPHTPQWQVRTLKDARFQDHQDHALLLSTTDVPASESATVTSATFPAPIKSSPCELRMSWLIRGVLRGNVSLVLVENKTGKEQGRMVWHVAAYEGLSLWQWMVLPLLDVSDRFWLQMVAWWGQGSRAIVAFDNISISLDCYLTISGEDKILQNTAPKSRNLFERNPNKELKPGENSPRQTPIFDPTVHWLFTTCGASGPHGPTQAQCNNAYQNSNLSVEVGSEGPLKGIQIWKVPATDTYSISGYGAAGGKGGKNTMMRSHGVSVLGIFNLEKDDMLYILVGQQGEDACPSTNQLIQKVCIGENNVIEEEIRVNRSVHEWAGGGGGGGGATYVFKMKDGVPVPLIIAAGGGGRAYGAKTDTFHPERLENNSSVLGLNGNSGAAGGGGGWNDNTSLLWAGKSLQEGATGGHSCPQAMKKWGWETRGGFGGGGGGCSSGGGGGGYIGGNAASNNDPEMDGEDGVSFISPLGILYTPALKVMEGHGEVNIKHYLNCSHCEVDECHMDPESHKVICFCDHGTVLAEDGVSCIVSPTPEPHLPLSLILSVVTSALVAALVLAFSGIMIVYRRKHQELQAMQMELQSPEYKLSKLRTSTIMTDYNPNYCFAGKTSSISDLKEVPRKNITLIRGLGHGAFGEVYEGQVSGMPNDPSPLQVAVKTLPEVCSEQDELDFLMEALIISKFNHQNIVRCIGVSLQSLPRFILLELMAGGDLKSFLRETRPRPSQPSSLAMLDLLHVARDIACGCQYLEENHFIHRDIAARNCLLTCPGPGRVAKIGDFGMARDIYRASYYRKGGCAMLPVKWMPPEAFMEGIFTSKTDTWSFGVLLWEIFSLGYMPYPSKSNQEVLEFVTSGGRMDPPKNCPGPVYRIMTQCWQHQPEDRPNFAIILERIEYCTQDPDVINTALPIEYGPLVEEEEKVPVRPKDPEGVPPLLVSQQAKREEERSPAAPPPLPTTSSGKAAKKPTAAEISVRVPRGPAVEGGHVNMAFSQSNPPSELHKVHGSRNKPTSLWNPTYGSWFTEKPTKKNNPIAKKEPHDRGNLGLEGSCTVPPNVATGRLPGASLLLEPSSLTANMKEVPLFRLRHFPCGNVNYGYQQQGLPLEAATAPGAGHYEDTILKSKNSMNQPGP
Chain of TYK2 (P29597 whole entry): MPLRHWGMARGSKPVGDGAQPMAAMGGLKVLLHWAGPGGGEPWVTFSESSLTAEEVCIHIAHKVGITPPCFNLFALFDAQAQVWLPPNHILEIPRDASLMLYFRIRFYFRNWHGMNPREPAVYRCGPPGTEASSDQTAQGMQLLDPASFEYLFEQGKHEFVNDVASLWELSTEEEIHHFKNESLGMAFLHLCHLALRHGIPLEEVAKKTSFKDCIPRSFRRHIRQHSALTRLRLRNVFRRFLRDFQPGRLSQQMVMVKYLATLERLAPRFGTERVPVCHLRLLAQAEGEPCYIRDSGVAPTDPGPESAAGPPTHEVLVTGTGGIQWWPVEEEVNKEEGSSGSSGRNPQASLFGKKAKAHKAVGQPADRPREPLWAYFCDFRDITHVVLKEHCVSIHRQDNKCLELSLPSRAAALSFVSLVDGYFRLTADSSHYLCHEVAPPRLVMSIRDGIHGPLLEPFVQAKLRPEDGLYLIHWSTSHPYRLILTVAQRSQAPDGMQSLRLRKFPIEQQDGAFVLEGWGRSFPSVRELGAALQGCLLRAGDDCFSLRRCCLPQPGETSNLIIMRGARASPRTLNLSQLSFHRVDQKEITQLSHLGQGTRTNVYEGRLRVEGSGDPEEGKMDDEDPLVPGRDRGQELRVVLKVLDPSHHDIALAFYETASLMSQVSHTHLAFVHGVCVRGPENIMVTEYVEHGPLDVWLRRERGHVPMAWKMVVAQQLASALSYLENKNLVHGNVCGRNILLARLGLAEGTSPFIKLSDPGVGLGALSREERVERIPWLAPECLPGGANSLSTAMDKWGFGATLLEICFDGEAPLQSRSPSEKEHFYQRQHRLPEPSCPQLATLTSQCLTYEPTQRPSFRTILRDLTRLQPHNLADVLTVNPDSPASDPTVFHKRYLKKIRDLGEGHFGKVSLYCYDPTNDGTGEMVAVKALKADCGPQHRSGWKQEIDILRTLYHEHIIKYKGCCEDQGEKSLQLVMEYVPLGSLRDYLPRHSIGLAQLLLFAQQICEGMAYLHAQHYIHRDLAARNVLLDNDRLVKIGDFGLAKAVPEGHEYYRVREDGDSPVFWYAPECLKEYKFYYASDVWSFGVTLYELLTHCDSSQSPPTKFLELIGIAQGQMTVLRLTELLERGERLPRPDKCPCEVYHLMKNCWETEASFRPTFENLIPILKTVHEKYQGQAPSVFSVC
T3 sequence (P23458 849-1154): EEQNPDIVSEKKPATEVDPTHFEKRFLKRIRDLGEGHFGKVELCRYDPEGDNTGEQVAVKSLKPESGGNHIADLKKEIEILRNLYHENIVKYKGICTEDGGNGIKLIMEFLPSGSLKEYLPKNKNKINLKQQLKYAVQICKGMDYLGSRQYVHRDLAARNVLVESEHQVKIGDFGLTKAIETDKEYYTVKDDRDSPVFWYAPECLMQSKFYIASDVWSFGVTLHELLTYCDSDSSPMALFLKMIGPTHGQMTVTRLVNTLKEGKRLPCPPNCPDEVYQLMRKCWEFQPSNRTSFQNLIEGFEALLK
T1 sequence (O60674 828-1132): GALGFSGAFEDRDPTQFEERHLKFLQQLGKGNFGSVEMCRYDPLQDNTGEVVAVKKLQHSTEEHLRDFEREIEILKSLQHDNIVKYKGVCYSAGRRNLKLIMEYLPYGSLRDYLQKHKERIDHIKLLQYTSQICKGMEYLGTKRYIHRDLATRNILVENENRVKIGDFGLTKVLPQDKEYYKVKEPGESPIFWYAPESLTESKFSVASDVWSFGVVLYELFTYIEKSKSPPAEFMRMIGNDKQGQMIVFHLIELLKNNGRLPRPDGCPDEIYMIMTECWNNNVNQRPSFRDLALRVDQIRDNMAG
T2 sequence (P52333 781-1124): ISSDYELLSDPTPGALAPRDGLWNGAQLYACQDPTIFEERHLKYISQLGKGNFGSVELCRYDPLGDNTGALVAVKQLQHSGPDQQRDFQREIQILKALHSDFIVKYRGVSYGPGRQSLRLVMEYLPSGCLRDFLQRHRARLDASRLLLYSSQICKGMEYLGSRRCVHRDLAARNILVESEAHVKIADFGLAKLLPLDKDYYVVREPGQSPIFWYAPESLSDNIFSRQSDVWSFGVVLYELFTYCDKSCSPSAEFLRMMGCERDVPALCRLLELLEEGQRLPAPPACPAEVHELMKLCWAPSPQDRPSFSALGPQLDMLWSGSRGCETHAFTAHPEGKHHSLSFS

IC50 ([1]; Table B1) [nM] | IC50 ([2]; Table B1) [nM] | IC50 ([3]; Table B1) [nM] | IC50 ([4]; Table B1) [nM] | IC50 [5] [nM] | IC50 [1, 6] [nM] | IC50 [2, 7] [nM] | IC50 [3] [nM] | IC50 [4, 8] [nM] | ALK % of inhibition at a concentration of 500 nM or 1 mM [5, 9] [%] | ALK % of inhibition at a concentration of 500 nM or 1 mM [5, 10] [%] | ALK % of inhibition at a concentration of 500 nM or 1 mM ([5]; compound at 500 nM or 1 mM, 90 μM ATP, bis(trifluoroacetate)) [%] | ALK % of inhibition at a concentration of 500 nM or 1 mM ([5]; percentage inhibition of the example compound at a concentration of 500 nM or 1 mM (not specified which)) [%] | SMILES
47 | 107 | 228 | 365 | > 1000 | – | – | – | – | – | – | – | – | CC(C)(C)C(=O)Nc1ccc2cc1CCc1cccc(c1)Nc1ncc(Cl)c(n1)N2 [Example B58, N-[6-Chloro-2,4,8,22-tetraazatetracyclo[14.3.1.1(3,7).1(9,13)]docosa-1(20), 3(22),4,6,9(21),10,12,16,18-nonaen-12-yl]-2,2-dimethylpropanamide trifluoroacetate]
6 | 45 | 12 | 1 | > 1000 | – | – | – | – | – | – | – | – | N#Cc1ccc(NC(=O)Nc2ccc3cc2CCc2cccc(c2)Nc2ncc(Cl)c(n2)N3)cc1 [Example B96, N-[6-Chloro-2,4,8,22-tetraazatetracyclo[14.3.1.1(3,7).1(9,13)]docosa-1(20), 3(22),4,6,9(21),10,12,16,18-nonaen-12-yl]-N′-(4-cyanophenyl)urea trifluoroacetate]
– | – | – | – | – | 20 | 44 | 33 | 14 | 27 | – | – | – | O=C(CCC1CCNCC1)Nc1ccc2cc1CCc1cccc(c1)Nc1ncc(Cl)c(n1)N2 [Example A116, N-[6-Chloro-2,4,8,22-tetraazatetracyclo[14.3.1.1(3,7).1(9,13)]docosa-1(20),3(22),4,6,9(21),10,12,16,18-nonaen-12-yl]-3piperidin-4-ylpropanamide bis(trifluoroacetate)]
765 | > 10000 | 887 | 27 | – | – | – | – | – | – | 12 | – | – | O=C(Nc1ccc2cc1CCc1cncc(c1)Nc1ncc(Cl)c(n1)N2)N[C@H]1CCN(C(=O)c2cn[nH]c2)C1 [Example B267, N-[6-chloro-2,4,8,18,22-pentaazatetracyclo[14.3.1.1(3,7).1(9,13)]docosa-1(20),3(22),4,6,9(21),10,12,16,18-nonaen-12-yl]-N′-[(3S)-1-(1H-pyrazol-4-ylcarbonyl)pyrrolidin-3-yl]urea bis(trifluoroacetate)]
0.84 | 1.3 | 2.8 | 0.23 | – | – | – | – | – | – | 43 | – | – | NS(=O)(=O)N1CC[C@@H](NC(=O)Nc2ccc3cc2CCc2cccc(c2)Nc2ncc(Cl)c(n2)N3)C1 [Example B179, (3R)-3-[({[6-Chloro-2,4,8,22-tetraazatetracyclo[14.3.1.1(3,7).1(9,13)]docosa-1(20),3(22),4,6,9(21),10,12,16,18-nonaen-12-yl]amino}carbonyl)amino]pyrrolidine-1-sulfonamide trifluoroacetate]
0.4 | 2.4 | 1.9 | 0.9 | – | – | – | – | – | – | 29 | – | – | CS(=O)(=O)NCCNC(=O)Nc1ccc2cc1CCc1cccc(c1)Nc1ncc(Cl)c(n1)N2 [Example B187, N-{2-[({[6-Chloro-2,4,8,22-tetraazatetracyclo[14.3.1.1(3,7).1(9,13)]docosa-1(20),3(22),4,6,9(21),10,12,16,18-nonaen-12-yl]amino}carbonyl)amino]ethyl}methanesulfonamide trifluoroacetate]
12 | 51 | 172 | 68 | 1960 | – | – | – | – | – | – | – | – | O=C(Nc1ccc(CCO)cc1)c1cc2cc(c1)Nc1nc(ncc1Cl)Nc1cccc(c1)CC2 [Example B10, 6-Chloro-N-[4-(2-hydroxyethyl)phenyl]-2,4,8,22-tetraazatetracyclo[14.3.1.1(3,7).1(9,13)]docosa-1(20),3(22),4,6,9(21),10,12,16,18-nonaene-11-carboxamide trifluoroacetate]
17 | 228 | 34 | 1.6 | – | – | – | – | – | – | 12 | – | – | O=C(Nc1ccc2cc1CCc1cccc(c1)Nc1ncc(Cl)c(n1)N2)N[C@H]1CCN(C(=O)c2ccccc2)C1 [Example B170, N-[(3S)-1-Benzoylpyrrolidin-3-yl]-N′-[6-chloro-2,4,8,22-tetraazatetracyclo[14.3.1.1(3,7).1(9,13)]docosa-1(20),3(22),4,6,9(21),10,12,16,18-nonaen-12-yl]urea trifluoroacetate]
36 | 153 | 50 | 12 | – | – | – | – | – | – | 14 | – | – | O=C(Nc1ccc2cc1CCc1cncc(c1)Nc1ncc(Cl)c(n1)N2)N[C@H]1CCNC1 [Example B25, N-[6-Chloro-2,4,8,18,22-pentaazatetracyclo[14.3.1.1(3,7).1(9,13)]docosa-1(20),3(22),4,6,9(21),10,12,16,18-nonaen-12-yl]-N′-[(3S)-pyrrolidin-3-yl]urea trihydrochloride]
– | – | – | – | – | 30 | > 100 | 43 | 16 | – | – | 21 | – | Cc1noc(C)c1NC(=O)N1CCC(CC(=O)Nc2ccc3cc2CCc2cncc(c2)Nc2ncc(Cl)c(n2)N3)CC1 [Example A145, 4-(2-{[6-Chloro-2,4,8,18,22-pentaazatetracyclo[14.3.1.1(3,7).1(9,13)]docosa-1(20),3(22),4,6,9(21),10,12,16,18-nonaen-12-yl]amino}-2-oxoethyl)-N-(3,5-dimethylisoxazol-4-yl)piperidine-1-carboxamide bis(trifluoroacetate)]
9.6 | 90 | 18 | 4.3 | – | – | – | – | – | – | 5.7 | – | – | CCOc1ccccc1NC(=O)Nc1ccc2cc1CCc1cccc(c1)Nc1ncc(Cl)c(n1)N2 [Example B106, N-[6-Chloro-2,4,8,22-tetraazatetracyclo[14.3.1.1(3,7).1(9,13)]docosa-1(20), 3(22),4,6,9(21),10,12,16,18-nonaen-12-yl]-N′-(2-ethoxyphenyl)urea trifluoroacetate]
– | – | – | – | – | 1.2 | 3.2 | 14 | 6.1 | 35 | – | – | – | CCNC(=O)N1CC[C@@H](C(=O)Nc2ccc3cc2CCc2cccc(c2)Nc2ncc(Cl)c(n2)N3)C1 [Example A53, (3R)—N(3)-[6-Chloro-2,4,8,22-tetraazatetracyclo[14.3.1.1(3,7).1(9,13)]docosa-1(20),3(22),4,6,9(21),10,12,16,18-nonaen-12-yl]-N(1)-ethylpyrrolidine-1,3-dicarboxamide trifluoroacetate]
199 | > 200 | > 200 | 44 | – | – | – | – | – | – | – | – | 72 | CNCc1ccc2cc1CCc1cncc(c1)Nc1ncc(Cl)c(n1)N2 [Example B334, 1-[6-Chloro-2,4,8,18,22-pentaazatetracyclo[14.3.1.1(3,7).1(9,13)]docosa-1(20),3(22),4,6,9(21),10,12,16,18-nonaen-12-yl]-N-methylmethanamine trihydrochloride]
1.7 | 9.7 | 6.1 | 1.7 | – | – | – | – | – | – | 29 | – | – | CC(C)(C)OC(=O)N[C@@H]1CCN(C(=O)Nc2ccc3cc2CCc2cccc(c2)Nc2ncc(Cl)c(n2)N3)C1 [Example B236, tert-Butyl [(3R)-1-({[6-chloro-2,4,8,22-tetraazatetracyclo[14.3.1.1(3,7).1(9,13)]docosa-1(20),3(22),4,6,9(21),10,12,16,18-nonaen-12-yl]amino}carbonyl)pyrrolidin-3-yl]carbamate]
– | – | – | – | – | 31 | 31 | 65 | 42 | 30 | – | – | – | CC(=O)N1CCC(C(=O)Nc2ccc3cc2CCc2cccc(c2)Nc2ncc(Cl)c(n2)N3)CC1 [Example A29, 1-Acetyl-N-[6-chloro-2,4,8,22-tetraazatetracyclo[14.3.1.1(3,7).1(9,13)]docosa-1(20),3(22),4,6,9(21),10,12,16,18-nonaen-12-yl]piperidine-4-carboxamide trifluoroacetate]
– | – | – | – | – | > 200 | > 200 | > 200 | 44 | 22 | – | – | – | N#Cc1ccc(N2CCC(CC(=O)Nc3ccc4cc3CCc3cncc(c3)Nc3ncc(Cl)c(n3)N4)CC2)cc1 [Example A221, N-[6-Chloro-2,4,8,18,22-pentaazatetracyclo[14.3.1.1(3,7).1(9,13)]docosa-1(20),3(22),4,6,9(21),10,12,16,18-nonaen-12-yl]-2-[1-(4-cyanophenyl)piperidin-4-yl]acetamide tris(trifluoroacetate)]
